Results taken from ChEMBL document CHEMBL1143950, “Antifungal and cytotoxic activities of some N-substituted aniline derivatives bearing a hetaryl fragment” (Bioorg Med Chem, 2008).
In brackets after ≈: the same amount, converted by molar mass.

Key:
Cryptococcus neoformans [1] = assay: Antifungal activity against Cryptococcus neoformans IM 031706 by micro-broth dilution method; type: functional
Cryptococcus neoformans [2] = assay: Antifungal activity against Cryptococcus neoformans IM 961951 by micro-broth dilution method; type: functional
Cryptococcus neoformans [3] = assay: Antifungal activity against Cryptococcus neoformans IM 042074 by micro-broth dilution method; type: functional
Cryptococcus neoformans [4] = assay: Antifungal activity against Cryptococcus neoformans IM 972751 by microbroth dilution method; type: functional
Cryptococcus neoformans [5] = assay: Antifungal activity against Cryptococcus neoformans IM 031631 by micro-broth dilution method; type: functional
Cryptococcus neoformans [6] = assay: Antifungal activity against Cryptococcus neoformans IM 00319 by microbroth dilution method; type: functional
Cryptococcus neoformans [7] = assay: Antifungal activity against Cryptococcus neoformans IM 972724 by micro-broth dilution method; type: functional
Cryptococcus neoformans [8] = assay: Antifungal activity against Cryptococcus neoformans IM 983040 by micro-broth dilution method; type: functional
Cryptococcus neoformans [9] = assay: Antifungal activity against Cryptococcus neoformans IM 983036 by micro-broth dilution method; type: functional
Aspergillus fumigatus = assay: Antifungal activity against Aspergillus fumigatus ATCC 26934 by micro-broth dilution method; type: functional
Cryptococcus neoformans [10] = assay: Antifungal activity against Cryptococcus neoformans ATCC 32264 by microbroth dilution method; type: functional
Saccharomyces cerevisiae = assay: Antifungal activity against Saccharomyces cerevisiae ATCC 9763 by microbroth dilution method; type: functional
Candida albicans = assay: Antifungal activity against Candida albicans ATCC 10231 by micro-broth dilution method; type: functional
[11] = test system: Trichophyton mentagrophytes; assay: Antifungal activity against Trichophyton mentagrophytes ATCC 9972 by micro-broth dilution method; type: functional
Trichophyton rubrum = assay: Antifungal activity against Trichophyton rubrum C113 by microbroth dilution method; type: functional
Aspergillus flavus = assay: Antifungal activity against Aspergillus flavus ATCC 9170 by micro-broth dilution method; type: functional
Aspergillus niger = assay: Antifungal activity against Aspergillus niger ATCC 9029 by micro-broth dilution method; type: functional
Nannizzia gypsea = assay: Antifungal activity against Microsporum gypseum C115 by microbroth dilution method; type: functional
Candida tropicalis = assay: Antifungal activity against Candida tropicalis C131 by micro-broth dilution method; type: functional
SF-268 = assay: Cytotoxicity against human SF268 cells by SRB assay; type: functional, cell-based
NCI-H460 = assay: Cytotoxicity against human H460 cells by SRB assay; type: functional, cell-based

OC(Cn1cncn1)(Cn1cncn1)c1ccc(F)cc1F [FLUCONAZOLE]
MIC (Cryptococcus neoformans [1]): 3.9 mg/L (≈ 12.7 µM) | MIC (Cryptococcus neoformans [2]): 7.8 mg/L (≈ 25.5 µM) | MIC (Cryptococcus neoformans [3]): 3.9 mg/L (≈ 12.7 µM) | MIC (Cryptococcus neoformans [4]): 31.2 mg/L (≈ 102 µM) | MIC (Cryptococcus neoformans [5]): 31.2 mg/L (≈ 102 µM) | MIC (Cryptococcus neoformans [6]): 1.9 mg/L (≈ 6.2 µM) | MIC (Cryptococcus neoformans [7]): 3.9 mg/L (≈ 12.7 µM) | MIC (Cryptococcus neoformans [8]): 7.8 mg/L (≈ 25.5 µM) | MIC (Cryptococcus neoformans [9]): 15.6 mg/L (≈ 50.9 µM)

Nc1nc(=O)[nH]cc1F [FLUCYTOSINE]
MIC (Cryptococcus neoformans [1]): 3.9 mg/L (≈ 30.2 µM) | MIC (Cryptococcus neoformans [2]): 7.8 mg/L (≈ 60.4 µM) | MIC (Cryptococcus neoformans [3]): 3.9 mg/L (≈ 30.2 µM) | MIC (Cryptococcus neoformans [4]): 7.8 mg/L (≈ 60.4 µM) | MIC (Cryptococcus neoformans [5]): 7.8 mg/L (≈ 60.4 µM) | MIC (Cryptococcus neoformans [6]): 15.6 mg/L (≈ 121 µM) | MIC (Cryptococcus neoformans [7]): 3.9 mg/L (≈ 30.2 µM) | MIC (Cryptococcus neoformans [8]): 7.8 mg/L (≈ 60.4 µM)

C=CCC(Nc1ccc(Cl)cc1)c1ccoc1 (centres undefined)
MIC (Aspergillus fumigatus): > 250 mg/L | MIC (Cryptococcus neoformans [10]): 125 mg/L (≈ 505 µM) | MIC (Saccharomyces cerevisiae): > 250 mg/L | MIC (Candida albicans): > 250 mg/L | MIC [11]: 62.5 mg/L (≈ 252 µM) | MIC (Trichophyton rubrum): 62.5 mg/L (≈ 252 µM) | MIC (Aspergillus flavus): > 250 mg/L | MIC (Aspergillus niger): > 250 mg/L | MIC (Nannizzia gypsea): 62.5 mg/L (≈ 252 µM) | MIC (Candida tropicalis): > 250 mg/L

C=CCC(Nc1ccc(C)cc1)c1ccsc1 (centres undefined)
MIC (Aspergillus fumigatus): > 250 mg/L | MIC (Cryptococcus neoformans [10]): > 250 mg/L | MIC (Saccharomyces cerevisiae): > 250 mg/L | MIC (Candida albicans): > 250 mg/L | MIC [11]: > 250 mg/L | MIC (Trichophyton rubrum): > 250 mg/L | MIC (Aspergillus flavus): > 250 mg/L | MIC (Aspergillus niger): > 250 mg/L | MIC (Nannizzia gypsea): > 250 mg/L | MIC (Candida tropicalis): > 250 mg/L

O=[N+]([O-])c1cccc(NCc2ccccn2)c1
MIC (Aspergillus fumigatus): 200 mg/L (≈ 872 µM) | MIC (Cryptococcus neoformans [10]): 50 mg/L (≈ 218 µM) | MIC (Saccharomyces cerevisiae): 100 mg/L (≈ 436 µM) | MIC (Candida albicans): 100 mg/L (≈ 436 µM) | MIC [11]: 50 mg/L (≈ 218 µM) | MIC (Trichophyton rubrum): 50 mg/L (≈ 218 µM) | MIC (Aspergillus flavus): 100 mg/L (≈ 436 µM) | MIC (Aspergillus niger): 200 mg/L (≈ 872 µM) | MIC (Nannizzia gypsea): 50 mg/L (≈ 218 µM) | MIC (Candida tropicalis): 100 mg/L (≈ 436 µM)

Fc1ccc(NCc2ccco2)cc1
MIC (Aspergillus fumigatus): 100 mg/L (≈ 523 µM) | MIC (Cryptococcus neoformans [10]): 100 mg/L (≈ 523 µM) | MIC (Saccharomyces cerevisiae): 125 mg/L (≈ 654 µM) | MIC (Candida albicans): 100 mg/L (≈ 523 µM) | MIC [11]: 62.5 mg/L (≈ 327 µM) | MIC (Trichophyton rubrum): 25 mg/L (≈ 131 µM) | MIC (Aspergillus flavus): > 250 mg/L | MIC (Aspergillus niger): 250 mg/L (≈ 1310 µM) | MIC (Nannizzia gypsea): 100 mg/L (≈ 523 µM) | MIC (Candida tropicalis): 125 mg/L (≈ 654 µM)

Cc1ccc(NCc2ccsc2)cc1
MIC (Aspergillus fumigatus): 250 mg/L (≈ 1230 µM) | MIC (Cryptococcus neoformans [10]): 250 mg/L (≈ 1230 µM) | MIC (Saccharomyces cerevisiae): > 250 mg/L | MIC (Candida albicans): > 250 mg/L | MIC [11]: 125 mg/L (≈ 615 µM) | MIC (Trichophyton rubrum): 125 mg/L (≈ 615 µM) | MIC (Aspergillus flavus): 250 mg/L (≈ 1230 µM) | MIC (Aspergillus niger): 250 mg/L (≈ 1230 µM) | MIC (Nannizzia gypsea): 250 mg/L (≈ 1230 µM) | MIC (Candida tropicalis): > 250 mg/L

Cn1cccc1C(C#N)Nc1ccccc1 (centres undefined)
MIC (Aspergillus fumigatus): > 250 mg/L | MIC (Cryptococcus neoformans [10]): > 250 mg/L | MIC (Saccharomyces cerevisiae): > 250 mg/L | MIC (Candida albicans): > 250 mg/L | MIC [11]: 250 mg/L (≈ 1180 µM) | MIC (Trichophyton rubrum): 250 mg/L (≈ 1180 µM) | MIC (Aspergillus flavus): > 250 mg/L | MIC (Aspergillus niger): > 250 mg/L | MIC (Nannizzia gypsea): 250 mg/L (≈ 1180 µM) | MIC (Candida tropicalis): > 250 mg/L

C=CCC(Nc1ccccc1)c1ccoc1 (centres undefined)
MIC (Aspergillus fumigatus): > 250 mg/L | MIC (Cryptococcus neoformans [10]): 250 mg/L (≈ 1170 µM) | MIC (Saccharomyces cerevisiae): > 250 mg/L | MIC (Candida albicans): > 250 mg/L | MIC [11]: 62.5 mg/L (≈ 293 µM) | MIC (Trichophyton rubrum): 62.5 mg/L (≈ 293 µM) | MIC (Aspergillus flavus): > 250 mg/L | MIC (Aspergillus niger): > 250 mg/L | MIC (Nannizzia gypsea): 125 mg/L (≈ 586 µM) | MIC (Candida tropicalis): > 250 mg/L

c1ccc(NCc2cccnc2)cc1
MIC (Aspergillus fumigatus): 250 mg/L (≈ 1360 µM) | MIC (Cryptococcus neoformans [10]): > 250 mg/L | MIC (Saccharomyces cerevisiae): > 250 mg/L | MIC (Candida albicans): 250 mg/L (≈ 1360 µM) | MIC [11]: 125 mg/L (≈ 678 µM) | MIC (Trichophyton rubrum): 125 mg/L (≈ 678 µM) | MIC (Aspergillus flavus): 250 mg/L (≈ 1360 µM) | MIC (Aspergillus niger): 250 mg/L (≈ 1360 µM) | MIC (Nannizzia gypsea): 125 mg/L (≈ 678 µM) | MIC (Candida tropicalis): 250 mg/L (≈ 1360 µM)

COc1cccc2c1C(=O)c1c(O)c3c(c(O)c1C2=O)C[C@@](O)(C(=O)CO)C[C@@H]3O[C@H]1C[C@H](N)[C@H](O)[C@H](C)O1 [DOXORUBICIN]
IC50 (SF-268): 0.14 mg/L (≈ 0.258 µM) | IC50 (NCI-H460): 0.18 mg/L (≈ 0.331 µM)

N#CC(Nc1ccccc1)c1cccs1 (centres undefined)
MIC (Aspergillus fumigatus): > 250 mg/L | MIC (Cryptococcus neoformans [10]): > 250 mg/L | MIC (Saccharomyces cerevisiae): > 250 mg/L | MIC (Candida albicans): > 250 mg/L | MIC [11]: 250 mg/L (≈ 1170 µM) | MIC (Trichophyton rubrum): 250 mg/L (≈ 1170 µM) | MIC (Aspergillus flavus): > 250 mg/L | MIC (Aspergillus niger): > 250 mg/L | MIC (Nannizzia gypsea): > 250 mg/L | MIC (Candida tropicalis): > 250 mg/L

COc1ccc(NCc2ccco2)cc1
MIC (Aspergillus fumigatus): 250 mg/L (≈ 1230 µM) | MIC (Cryptococcus neoformans [10]): > 250 mg/L | MIC (Saccharomyces cerevisiae): > 250 mg/L | MIC (Candida albicans): > 250 mg/L | MIC [11]: 50 mg/L (≈ 246 µM) | MIC (Trichophyton rubrum): 100 mg/L (≈ 492 µM) | MIC (Aspergillus flavus): 250 mg/L (≈ 1230 µM) | MIC (Aspergillus niger): 250 mg/L (≈ 1230 µM) | MIC (Nannizzia gypsea): 100 mg/L (≈ 492 µM) | MIC (Candida tropicalis): > 250 mg/L

Cc1ccc(NCc2cccc(N)c2)cc1
MIC (Aspergillus fumigatus): 25 mg/L (≈ 118 µM) | MIC (Cryptococcus neoformans [10]): 100 mg/L (≈ 471 µM) | MIC (Saccharomyces cerevisiae): 100 mg/L (≈ 471 µM) | MIC (Candida albicans): 50 mg/L (≈ 236 µM) | MIC [11]: 100 mg/L (≈ 471 µM) | MIC (Trichophyton rubrum): 100 mg/L (≈ 471 µM) | MIC (Aspergillus flavus): 25 mg/L (≈ 118 µM) | MIC (Aspergillus niger): 12.5 mg/L (≈ 58.9 µM) | MIC (Nannizzia gypsea): 100 mg/L (≈ 471 µM) | MIC (Candida tropicalis): 50 mg/L (≈ 236 µM)

Ic1ccc(NCc2ccccn2)cc1
MIC (Aspergillus fumigatus): 200 mg/L (≈ 645 µM) | MIC (Cryptococcus neoformans [10]): 100 mg/L (≈ 322 µM) | MIC (Saccharomyces cerevisiae): 200 mg/L (≈ 645 µM) | MIC (Candida albicans): > 250 mg/L | MIC [11]: 25 mg/L (≈ 80.6 µM) | MIC (Trichophyton rubrum): 25 mg/L (≈ 80.6 µM) | MIC (Aspergillus flavus): 100 mg/L (≈ 322 µM) | MIC (Aspergillus niger): 100 mg/L (≈ 322 µM) | MIC (Nannizzia gypsea): 25 mg/L (≈ 80.6 µM) | MIC (Candida tropicalis): > 250 mg/L

N#CC(Nc1ccccc1)c1ccncc1 (centres undefined)
MIC (Aspergillus fumigatus): 250 mg/L (≈ 1190 µM) | MIC (Cryptococcus neoformans [10]): 250 mg/L (≈ 1190 µM) | MIC (Saccharomyces cerevisiae): > 250 mg/L | MIC (Candida albicans): > 250 mg/L | MIC [11]: 125 mg/L (≈ 597 µM) | MIC (Trichophyton rubrum): 125 mg/L (≈ 597 µM) | MIC (Aspergillus flavus): 250 mg/L (≈ 1190 µM) | MIC (Aspergillus niger): 250 mg/L (≈ 1190 µM) | MIC (Nannizzia gypsea): 250 mg/L (≈ 1190 µM) | MIC (Candida tropicalis): > 250 mg/L
